System: Primary Human Subcutaneous Preadipocytes
Type: cell-based
Conditions: 2.5 ug/mL
Description: Quantification of adipogenesis is evaluated with AdipoRed™ Adipogenesis Assay Reagent (Lonza). The increase of the accumulation of lipids is determined by measuring the fluorescence signal of Nile Red in primary human Primary Human Subcutaneous Preadipocytes after treatment with exopolysaccharide produced by the strain of Halomonas eurihalina species with deposit number LMG P-28571 obtained in accordance with example 1 in Adipocyte Differentiation Medium. Cells treated with Adipocyte Differentiation Medium alone are used as a basal control. Human preadipocytes (from a donor) (ZENBIO) are seeded (13,000 cells/well, 5 wells per condition) in 96-clear well plates in Preadipocyte Growth Medium (ZENBIO). The cells are incubated for 24 hours at 37° C. in a water-saturated atmosphere of 95% air and 5% CO2. […] In the basal control, preadipocytes are treated with the Adipocyte Differentiation Medium only. As a negative control, preadipocytes are treated with the Adipocyte Differentiation Medium and caffeine. Quantification of the accumulation of lipids is carried out by AdipoRed™ reagent (LONZA) assay. […] The percentage of normalized lipid accumulation compared with the basal control is calculated.

Cn1c(=O)c2c(ncn2C)n(C)c1=O [Caffeine, caffeine]
% Lipid accumulation vs basal control: 87.50%

Reference: US10413501B2, “Cosmetic composition containing halomonas ferment extract, and use thereof” (LUBRIZOL ADVANCED MATERIALS, INC., priority 2014, dated 2019)
